Measurements as given in patent publication US11708357B2, “Crystal form of pyrrolidinyl urea derivative and application thereof” (ZHANGZHOU PIEN TZE HUANG PHARMACEUTICAL CO., LTD., priority 2020, dated 2023).

Columns and labels:
[1] = Plasma protein binding rate (PPB) test, SD rat plasma; format: in vitro ADME; conditions: 2 μM, dialysis 37° C. 4 hours
Protocol: (§1) The protein binding rates of the test compound in the plasma of humans and SD rats were determined.
(§2) 796 μL of blank plasma from humans and SD rats (plasma purchased from BioreclamationIVT) were taken, 4 μL of working solution of the test compound (400 μM) or warfarin working solution (400 μM) was added and the final concentration of the test compound or warfarin was 2 μM. The sample was mixed thoroughly. […] All samples were analyzed by LC/MS/MS after protein precipitation, and the plasma protein unbound rate, binding rate and recovery rate was calculated according to the following formula: % unbound rate=100*free compound concentration at the membrane buffer side/total compound concentration at the membrane plasma side, % protein binding rate=100−% unbound rate, % recovery rate=100*(free compound concentration at the membrane buffer side+total compound concentration at the membrane plasma side)/total compound concentration before dialysis.

[2] = In vivo pharmacokinetic study in beagle dogs after single administration; conditions: male, dog, plasma, 2 mg/kg, 2 mpk intravenous injection
Protocol: Male beagle dogs were used as test animals, the concentration of the compound in blood after single administration was determined to evaluate the pharmacokinetic behavior.
Beagle dogs (Male, 6-12 kg, more than 6 months, Beijing Marshall Biotechnology Co., Ltd.).
The objective of the test was to study the pharmacokinetic characteristics of the test compound in non-rodent after intravenous injection and oral administration. In the experiment, the test compound was prepared into a clear solution or homogeneous suspension and administered to the beagle dogs by single intravenous injection or oral administration. In the intravenous injection group, the menstruum was a certain proportion of dimethyl sulfoxide in HP-β-cyclodextrin solution or a certain proportion of ethanol, polyethylene glycol 400 and physiological saline solution, the mixture was vortexed and subjected to ultrasonic treatment to prepare 2 mg/mL clear solution, then filtered with microporous membrane for later use; in the oral administration group, the menstruum was a certain proportion of dimethyl sulfoxide in HP-β-cyclodextrin solution or a certain proportion of sodium carboxymethyl cellulose solution, the test compound was mixed with the menstruum, vortexed and subjected to ultrasonic treatment to prepare 2 mg/mL homogeneous suspension for later use. After 2 mg/kg intravenous administration or 10 mg/kg oral administration to the Beagle dogs, a certain amount of whole blood samples were collected, centrifuged at 3000 g for 10 minutes, and the supernatant was separated to obtain plasma samples; then an acetonitrile solution containing internal standard with a volume 10 times that of the plasma sample was added to precipitate proteins, and then centrifuged; the supernatant was separated for analysis; LC-MS/MS analysis method was used to quantitatively analyze the blood drug concentration, and Phoenix WinNonlin software (Pharsight, USA) was used to calculate the pharmacokinetic parameters, such as peak concentration, time to peak concentration, clearance rate, half-life, area under the concentration-time curve, bioavailability, etc.
Among them, C0 is the initial concentration, T1/2 is the elimination half-life, Vdss is the steady-state apparent volume of distribution, Cl is the total clearance rate, AUC0-inf is the area under the plasma drug concentration-time curve from time 0 to infinity, Cmax is the peak concentration, Tmax is the time to peak concentration.

CYP2D6 = molecular target: T1, CYP2D6 (Homo sapiens, UniProt P10635); test: Cytochrome P450 isozyme inhibitory activity test, CYP2D6; format: in vitro ADME; conditions: liver microsomes; human liver microsome
T1 construct: from tissue; host or cells: human liver microsomes
T1 sequence (P10635 whole entry): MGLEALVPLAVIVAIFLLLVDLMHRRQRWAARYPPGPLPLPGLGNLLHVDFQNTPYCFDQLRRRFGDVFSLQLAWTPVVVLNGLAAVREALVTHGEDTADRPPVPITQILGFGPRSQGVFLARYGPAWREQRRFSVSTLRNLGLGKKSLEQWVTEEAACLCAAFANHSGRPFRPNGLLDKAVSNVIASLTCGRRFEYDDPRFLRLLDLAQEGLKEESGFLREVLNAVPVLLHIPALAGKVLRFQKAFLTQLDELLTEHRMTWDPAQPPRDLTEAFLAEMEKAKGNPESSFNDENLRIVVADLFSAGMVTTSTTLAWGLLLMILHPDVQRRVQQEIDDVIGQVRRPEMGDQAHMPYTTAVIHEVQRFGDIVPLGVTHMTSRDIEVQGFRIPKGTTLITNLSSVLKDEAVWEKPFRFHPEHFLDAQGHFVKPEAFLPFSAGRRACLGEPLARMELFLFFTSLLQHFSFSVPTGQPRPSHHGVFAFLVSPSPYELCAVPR
Protocol: (§3) The inhibitory activities of the test compound on different subtypes of human cytochrome P450 isozymes were determined. The test compound, standard inhibitor (100× final concentration), and a mixed substrate working solution were prepared; the microsome frozen in −80° C. refrigerator was thawed. […]

[3] = Plasma protein binding rate (PPB) test, human plasma; format: in vitro ADME; conditions: 2 μM, dialysis 37° C. 4 hours
Protocol: as §1, §2

CYP2C9 = molecular target: T2, CYP2C9 (Homo sapiens, UniProt P11712); test: Cytochrome P450 isozyme inhibitory activity test, CYP2C9; format: in vitro ADME; conditions: liver microsomes; human liver microsome
T2 construct: from tissue; host or cells: human liver microsomes
T2 sequence (P11712 whole entry): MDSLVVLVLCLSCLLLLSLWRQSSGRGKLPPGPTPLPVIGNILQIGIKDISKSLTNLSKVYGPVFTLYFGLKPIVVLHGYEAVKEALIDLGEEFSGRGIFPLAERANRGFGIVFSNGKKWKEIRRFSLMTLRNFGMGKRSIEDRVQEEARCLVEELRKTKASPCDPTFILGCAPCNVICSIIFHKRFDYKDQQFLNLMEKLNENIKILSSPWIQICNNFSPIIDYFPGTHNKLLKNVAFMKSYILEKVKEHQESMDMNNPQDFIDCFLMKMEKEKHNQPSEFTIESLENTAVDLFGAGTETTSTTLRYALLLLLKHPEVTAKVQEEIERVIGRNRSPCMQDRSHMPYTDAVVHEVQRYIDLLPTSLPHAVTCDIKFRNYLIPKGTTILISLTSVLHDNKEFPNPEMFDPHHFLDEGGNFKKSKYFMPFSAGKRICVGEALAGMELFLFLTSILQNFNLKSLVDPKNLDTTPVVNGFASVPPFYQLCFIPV
Protocol: as §3

Which “Plasma protein unbound rate, SD rat plasma” value [1] does the source give for `COCCN1C[C@@H](n2ccc(F)c2)[C@H](NC(=O)Nc2c(C)c(-c3cnc(C4(F)COC4)nc3)nn2-c2ccccc2)C1` [Compound of formula (I)] here?
Its value is 7.1%.

And the AUC(0-inf) [2]?
The AUC(0-inf) was 4.66 µM·h.

And the C0 [2]?
Its C0 is 8.46 µM.

What about the clearance [2] of the same compound?
The clearance was 12.4 mL/min/kg.

What about the half-life [2] of the same compound?
Its half-life is 26.4 min.

And the Vd ([2]; read-out: Vdss)?
Its Vd is 0.49 L/kg.

What about the IC50 at 10 min (CYP2D6) of the same compound?
Its IC50 at 10 min is 40.6 µM.

And the “Plasma protein unbound rate, Human plasma” value [3]?
Its value is 13.2%.

And the IC50 at 10 min (CYP2C9)?
The IC50 at 10 min was 39.1 µM.
